US12281114B2, “NK3 modulators and uses thereof” (Kallyope, Inc., priority 2023, dated 2025)

What follows are molecules tested against T1, human NK3 (Homo sapiens, UniProt P29371) (assay: FLIPR calcium assay in antagonist mode (NKB EC70 challenge)). Settings: stable cell line expressing human recombinant NK3; antagonist mode vs EC70 of NKB agonist.
T1 sequence (P29371 1-465): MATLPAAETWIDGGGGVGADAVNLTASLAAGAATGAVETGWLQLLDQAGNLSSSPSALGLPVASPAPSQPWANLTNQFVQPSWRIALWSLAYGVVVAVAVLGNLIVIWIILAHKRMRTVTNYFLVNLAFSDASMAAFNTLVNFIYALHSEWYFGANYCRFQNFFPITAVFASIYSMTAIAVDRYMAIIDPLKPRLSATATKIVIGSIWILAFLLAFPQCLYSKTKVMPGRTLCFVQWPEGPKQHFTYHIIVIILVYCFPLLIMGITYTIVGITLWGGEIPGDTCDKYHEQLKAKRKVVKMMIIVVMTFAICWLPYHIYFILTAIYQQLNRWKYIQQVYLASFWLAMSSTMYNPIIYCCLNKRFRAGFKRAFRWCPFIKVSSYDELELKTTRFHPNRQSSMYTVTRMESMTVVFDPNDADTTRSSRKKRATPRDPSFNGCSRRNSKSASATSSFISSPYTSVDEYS
Assay type: cell-based
Procedure: Stable Cell Lines: A human recombinant NK3 Tachykinin Receptor stable cell line was purchased from GenScript (Genscript, Cat. #M00201; GenBank Accession Number NM 001059). The cell line was cultured according to manufacturer instructions, using 100 μg/mL Hygromycin B (Invitrogen, Cat. #D2650) for selective pressure. Cells were then collected using 0.05% Trypsin-EDTA (GIBCO, Cat. #25300) and frozen in a freezing media containing 90% FBS (Gibco, Cat. #10099-141) and 10% DMSO (Sigma, Cat. #D2650) at a density of 30×10^6 cells/mL. This bank of assay-ready frozen cells was later used in FLIPR assays to evaluate the potency and efficacy of NK3 antagonist test compounds.
FLIPR Calcium Assay: The FLIPR assay, used to measure changes in intracellular calcium levels, was performed in a 384-well plate format using the FLIPR Calcium 6 assay kit (Molecular Devices, Cat. #R8190). Assay-ready frozen cells expressing human NK3 (Genscript, Cat. #M00201) were thawed, washed, trypsinized, counted using a ViCell, and plated in cell growth media without Hygromycin at a density of […] (40 μL/well).
Calculation of NKB EC70: An EC70 concentration of NKB needed to be determined for competition against test antagonists prior to the compound screen. NKB agonist (Phoenix Pharmaceuticals, Cat. #046-26) was diluted in DMSO at 1800 nM (6-fold the final concentration) and serially diluted to generate a 13-point dose response curve (3-fold serial dilution) using an ECHO. 20 μL of 1× stimulation buffer was added using the BRAVO. 10 μL of DMSO was added while on the FLIPR (described as the first addition), then the RFU signal was measured for 10 minutes. The NKB titration was added to the plate, then the RFU signal was measured for 10 minutes (described as the second addition) on the FLIPR. The EC70 concentration was determined by using a four-parameter fit on GraphPad Prism prior to performing the compound screen.
FLIPR Screen in Antagonist Mode: Test compounds were prepared at 60 μM (6-fold the final concentration) and spotted in 370 nL using the Janus and ECHO. 20 μL of assay buffer was added using the BRAVO. Calcium-sensitive dye was reconstituted in loading buffer (Molecular Devices, Cat. #R8190). Media was removed from the cell plate using a Bluecat Cell Washer, and 40 μL of dye was added to the cell plate using the Apricot. The plate was incubated for 2 hours at 37° C., 5% CO2, then transferred to the FLIPR instrument. 10 μL of compound was added on the FLIPR (described as the first addition), then the RFU signal was measured for 10 minutes. EC70 of NKB agonist was added to the entire plate (described as the second addition), and the RFU signal was measured for 10 minutes on the FLIPR. RFU (relative fluorescence units) signals for first baseline, first peak, second baseline, and second peak were measured using the FLIPR. RFU signal (second peak minus second baseline) for positive (Max, at 10 μM antagonist) and negative (Min, at 0 μM antagonist) controls were used to normalize data and generate values for % Activity. IC50 and efficacy values were determined using a standard curve fitting equation on Dotmatics.

| SMILES | IC50 [nM] |
| --- | --- |
| Cc1nn(C)cc1-c1ccccc1-c1nc2cc(C(=O)N3CC[C@@H](N4CCNCC4)C3)ccn2c1C (single isomer, unassigned) [Compound 480] | 20.7 |
| Cc1nn(C)cc1-c1ccccc1-c1nc2cc(C(=O)N3CC[C@H](N4CCNCC4)C3)ccn2c1C (single isomer, unassigned) [Compound 481] | 16.1 |
| Cc1nn(C)cc1-c1ccccc1-c1nc2cc(C(=O)N3CCNCC3)ccn2c1C [Compound 271] | 20.3 |
| Cc1c(-c2ccccc2-c2nc3cc(C(=O)N[C@H]4C[C@@](C)(C(=O)O)C4)ccn3c2C)cnn1C [Compound 295] | 131 |
| Cc1c(-c2ccccc2-c2nc3cc(C(=O)N[C@H]4C[C@](C)(C(=O)O)C4)ccn3c2C)cnn1C [Compound 312] | 41.7 |
| Cc1nn(C)cc1-c1ccccc1-c1nc2cc(C(=O)NC34CC(O)(C3)C4)ccn2c1Cl [Compound 430] | 2.3 |
| Cc1nn(C)cc1-c1ccccc1-c1nc2cc(C(=O)N3C[C@@H]4C[C@H]3C(=O)N4)ccn2c1Cl [Compound 434] | 1.47 |
| Cc1nn(C)cc1-c1ccccc1-c1nc2cc(C(=O)N3C[C@H](N)[C@@H](O)C3)ccn2c1Cl [Compound 442] | 15.1 |
| Cc1nn(C)cc1-c1ccccc1-c1nc2cc(C(=O)N3CCN(C4CCNC4)CC3)ccn2c1Cl (centres unmarked) [Compound 443] | 11.3 |
| Cc1nn(C)cc1-c1ccccc1-c1nc2cc(C(=O)NCC(C)(C)O)ccn2c1Cl [Compound 448] | 6.01 |
| CC(=O)NCCNC(=O)c1ccn2c(Cl)c(-c3ccccc3-c3cn(C)nc3C)nc2c1 [Compound 451] | 7.13 |
| Cc1nn(C)cc1-c1ccccc1-c1nc2cc(C(=O)N3CCc4c[nH]nc4C3)ccn2c1Cl [Compound 452] | 2.79 |
| Cc1nn(C)cc1-c1ccccc1-c1nc2cc(C(=O)NCCC(C)(C)O)ccn2c1Cl [Compound 459] | 1.86 |
| Cc1nn(C)cc1-c1ccccc1-c1nc2cc(C(=O)N3CCc4n[nH]nc4C3)ccn2c1Cl [Compound 486] | 6.85 |
| Cc1nn(C)cc1-c1ccccc1-c1nc2cc(C(=O)NC[C@@H](C)N3CCNC3=O)ccn2c1Cl [Compound 490] | 3.4 |
| Cc1nn(C)cc1-c1ccccc1-c1nc2cc(C(=O)NCCS(N)(=O)=O)ccn2c1Cl [Compound 614] | 2.65 |
| Cc1nn(C)cc1-c1ccccc1-c1nc2cc(C(=O)NC34COC(CO)(C3)C4)ccn2c1Cl [Compound 615] | 2.5 |
| Cc1nn(C)cc1-c1ccccc1-c1nc2cc(C(=O)NCC34CC(CO)(CO3)C4)ccn2c1Cl [Compound 616] | 1.45 |
| Cc1nn(C)cc1-c1ccccc1-c1nc2cc(C(=O)NCC34CC(CO)(CCO3)C4)ccn2c1Cl [Compound 624] | 0.59 |
| Cc1nn(C)cc1-c1ccccc1-c1nc2cc(C(=O)NC[C@H]3C[C@](C)(O)C3)ccn2c1Cl [Compound 629] | 1.06 |
| Cc1nn(C)cc1-c1ccccc1-c1nc2cc(C(=O)NC[C@H]3C[C@@](C)(O)C3)ccn2c1Cl [Compound 631] | 0.78 |
| Cc1nn(C)cc1-c1ccccc1-c1nc2cc(C(=O)NC[C@]34C[C@](O)(C3)C4)ccn2c1Cl [Compound 633] | 1.53 |
| Cc1nn(C)cc1-c1ccccc1-c1nc2cc(C(=O)NC[C@]34C[C@](CO)(C3)C4)ccn2c1Cl [Compound 635] | 1.65 |
| Cc1nn(C)cc1-c1ccccc1-c1nc2cc(C(=O)N3CC(=O)N[C@@H](CO)C3)ccn2c1Cl [Compound 638] | 25.8 |
| Cc1nn(C)cc1-c1ccccc1-c1nc2cc(C(=O)N3CC(=O)N[C@H](CO)C3)ccn2c1Cl [Compound 639] | 3.81 |

More lines, now with the values ahead:

| IC50 [nM] | SMILES |
| --- | --- |
| 6.6 | Cc1c(-c2ccccc2-c2nc3cc(C(=O)N[C@@H]4CO[C@H]5[C@@H]4OC[C@H]5O)ccn3c2Cl)cnn1C [Compound 142] |
| 10.7 | Cc1nn(C)cc1-c1ccccc1-c1nc2cc(C(=O)NC3CCNCC3)ccn2c1C [Compound 264] |
| 26.8 | Cc1nn(C)cc1-c1ccccc1-c1nc2cc(C(=O)N[C@H]3C[C@@](C)(C(=O)O)C3)ccn2c1C [Compound 298] |
| 7.03 | Cc1nn(C)cc1-c1ccccc1-c1nc2cc(C(=O)N[C@H]3C[C@](C)(C(=O)O)C3)ccn2c1C [Compound 317] |
| 3.16 | Cc1nn(C)cc1-c1ccccc1-c1nc2cc(C(=O)N[C@@H]3CO[C@H]4[C@@H]3OC[C@H]4O)ccn2c1C [Compound 425] |
| 4.03 | Cc1nn(C)cc1-c1ccccc1-c1nc2cc(C(=O)N[C@@H]3CO[C@H]4[C@@H]3OC[C@H]4O)ccn2c1C#N [Compound 431] |
| 67.5 | Cc1nn(C)cc1-c1ccccc1-c1nc2cc(C(=O)O)ccn2c1Cl [Compound 436] |
| 3.19 | Cc1nn(C)cc1-c1ccccc1-c1nc2cc(C(=O)N[C@H]3C[C@](C)(O)C3)ccn2c1Cl [Compound 447] |
| 1.74 | Cc1nn(C)cc1-c1ccccc1-c1nc2cc(C(=O)NC[C@@H]3CNCCO3)ccn2c1Cl [Compound 455] |
| 2.55 | Cc1nn(C)cc1-c1ccccc1-c1nc2cc(C(=O)N[C@H]3C[C@@](C)(O)C3)ccn2c1Cl [Compound 460] |
| 3.41 | Cc1nn(C)cc1-c1ccccc1-c1nc2cc(C(=O)NC[C@H]3CNCCO3)ccn2c1Cl [Compound 461] |
| 2.9 | Cc1nn(C)cc1-c1cccc(F)c1-c1nc2cc(C(=O)N[C@@H]3CO[C@H]4[C@@H]3OC[C@H]4O)ccn2c1C#N [Compound 464] |
| 4.27 | Cc1nn(C)cc1-c1cccc(F)c1-c1nc2cc(C(=O)N3C[C@@H]4C[C@H]3C(=O)N4)ccn2c1C#N [Compound 468] |
| 1.41 | Cc1nn(C)cc1-c1cccc(F)c1-c1nc2cc(C(=O)N[C@@H]3CO[C@H]4[C@@H]3OC[C@H]4O)ccn2c1Cl [Compound 470] |
| 2.26 | Cc1nn(C)cc1-c1ccccc1-c1nc2cc(C(=O)N[C@@H]3CO[C@H]4[C@@H]3OC[C@@H]4O)ccn2c1Cl [Compound 473] |
| 5.74 | Cc1n[nH]cc1-c1ccccc1-c1nc2cc(C(=O)N[C@@H]3CO[C@H]4[C@@H]3OC[C@H]4O)ccn2c1Cl [Compound 475] |
| 3.31 | CCn1cc(-c2ccccc2-c2nc3cc(C(=O)N[C@@H]4CO[C@H]5[C@@H]4OC[C@H]5O)ccn3c2Cl)c(C)n1 [Compound 476] |
| 2.19 | CCn1ncc(-c2ccccc2-c2nc3cc(C(=O)N[C@@H]4CO[C@H]5[C@@H]4OC[C@H]5O)ccn3c2Cl)c1C [Compound 477] |
| 2.21 | Cc1nn(C)cc1-c1cccc(F)c1-c1nc2cc(C(=O)N3C[C@@H]4C[C@H]3C(=O)N4)ccn2c1Cl [Compound 487] |
| 3.18 | Cc1nn(C)cc1-c1ccccc1-c1nc2cc(C(=O)N[C@H]3CO[C@H]4[C@@H]3OC[C@@H]4N)ccn2c1Cl [Compound 617] |
| 1.24 | Cc1nn(C)cc1-c1ccccc1-c1nc2cc(C(=O)N[C@@H]3C[C@H]3CO)ccn2c1Cl [Compound 619] |
| 1.04 | Cc1nn(C)cc1-c1ccccc1-c1nc2cc(C(=O)N[C@H]3C[C@H](CO)C3)ccn2c1Cl [Compound 641] |
| 1.08 | Cc1nn(C)cc1-c1ccccc1-c1nc2cc(C(=O)N[C@H]3C[C@@H](CO)C3)ccn2c1Cl [Compound 643] |
| 2.02 | Cc1nn(C)cc1-c1ccccc1-c1nc2cc(C(=O)NC[C@H]3C[C@@H](O)C3(C)C)ccn2c1Cl [Compound 645] |
| 9.16 | Cc1nn(C)cc1-c1ccccc1-c1nc2cc(C(=O)N3C[C@@H]4[C@@H](O)[C@@H]4C3)ccn2c1Cl [Compound 647] |
